The target in the experiment is recombinant human Nav1.7 (Homo sapiens (Human), UniProt Q15858). Description: FRET-based membrane potential assay, recombinant human sodium channel Nav1.7. It counts as cell-based. In outline: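 Channel activation used veratridine at its EC80, set by a dilution curve each experiment, together with Leiurus scorpion venom, added 3 min after compound. Membrane-potential ratio signals from FLIPR Tetra in HEPES-buffered HBSS were fitted to a four-parameter Hill equation for percent inhibition and IC50.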
Sequence of recombinant human Nav1.7 (Q15858 whole entry): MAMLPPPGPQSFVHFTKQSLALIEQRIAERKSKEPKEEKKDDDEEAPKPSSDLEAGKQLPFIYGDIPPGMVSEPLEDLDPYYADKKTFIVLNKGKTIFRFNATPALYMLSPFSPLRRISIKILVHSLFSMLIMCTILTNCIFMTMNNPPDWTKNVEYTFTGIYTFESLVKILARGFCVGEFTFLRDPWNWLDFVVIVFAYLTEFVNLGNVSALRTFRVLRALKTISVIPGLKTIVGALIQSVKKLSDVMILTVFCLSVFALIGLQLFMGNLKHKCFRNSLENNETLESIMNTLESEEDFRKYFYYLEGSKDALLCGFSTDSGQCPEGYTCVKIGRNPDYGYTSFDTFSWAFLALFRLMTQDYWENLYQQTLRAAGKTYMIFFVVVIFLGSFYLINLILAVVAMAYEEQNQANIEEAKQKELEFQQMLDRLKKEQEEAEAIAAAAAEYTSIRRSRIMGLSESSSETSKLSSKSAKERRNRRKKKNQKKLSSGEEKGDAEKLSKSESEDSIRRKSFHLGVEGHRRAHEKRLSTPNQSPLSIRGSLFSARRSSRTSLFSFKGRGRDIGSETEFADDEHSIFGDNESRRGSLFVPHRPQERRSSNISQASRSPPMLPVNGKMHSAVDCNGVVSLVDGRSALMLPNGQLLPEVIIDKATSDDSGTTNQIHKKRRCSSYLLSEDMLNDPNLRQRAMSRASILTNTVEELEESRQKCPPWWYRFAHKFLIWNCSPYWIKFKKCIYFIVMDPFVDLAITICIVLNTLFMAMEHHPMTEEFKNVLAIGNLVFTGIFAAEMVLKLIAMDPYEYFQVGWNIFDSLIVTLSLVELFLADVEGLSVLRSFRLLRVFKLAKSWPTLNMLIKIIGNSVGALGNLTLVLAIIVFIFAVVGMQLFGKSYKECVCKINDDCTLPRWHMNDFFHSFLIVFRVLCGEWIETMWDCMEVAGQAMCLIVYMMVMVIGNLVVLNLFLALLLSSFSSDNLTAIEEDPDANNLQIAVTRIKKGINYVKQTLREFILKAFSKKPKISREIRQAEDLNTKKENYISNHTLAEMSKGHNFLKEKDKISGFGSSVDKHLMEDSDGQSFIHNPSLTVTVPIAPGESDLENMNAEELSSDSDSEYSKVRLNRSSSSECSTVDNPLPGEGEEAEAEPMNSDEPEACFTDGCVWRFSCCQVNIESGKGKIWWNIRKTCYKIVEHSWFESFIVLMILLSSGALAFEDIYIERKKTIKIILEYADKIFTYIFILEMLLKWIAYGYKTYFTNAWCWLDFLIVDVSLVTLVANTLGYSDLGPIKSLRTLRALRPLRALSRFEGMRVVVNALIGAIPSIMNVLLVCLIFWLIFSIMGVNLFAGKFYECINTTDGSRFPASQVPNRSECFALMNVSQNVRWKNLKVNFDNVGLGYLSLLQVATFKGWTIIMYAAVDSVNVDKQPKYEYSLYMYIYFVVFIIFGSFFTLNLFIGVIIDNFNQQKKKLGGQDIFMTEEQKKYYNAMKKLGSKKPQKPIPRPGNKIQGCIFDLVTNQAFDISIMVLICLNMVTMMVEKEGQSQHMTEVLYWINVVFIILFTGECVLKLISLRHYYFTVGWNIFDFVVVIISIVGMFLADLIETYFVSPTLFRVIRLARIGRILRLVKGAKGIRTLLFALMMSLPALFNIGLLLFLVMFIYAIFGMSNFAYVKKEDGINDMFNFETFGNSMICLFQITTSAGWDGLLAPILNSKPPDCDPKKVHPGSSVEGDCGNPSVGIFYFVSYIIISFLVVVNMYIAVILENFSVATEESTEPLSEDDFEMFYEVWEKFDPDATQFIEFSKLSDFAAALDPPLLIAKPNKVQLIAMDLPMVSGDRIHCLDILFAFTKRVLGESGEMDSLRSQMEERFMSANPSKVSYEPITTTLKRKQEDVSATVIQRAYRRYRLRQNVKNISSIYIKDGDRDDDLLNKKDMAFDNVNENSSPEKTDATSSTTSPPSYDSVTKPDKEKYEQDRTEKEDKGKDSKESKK

Setting [1] is: read-out: FRET-Membrane Potential Nav1.7 IC50.
[2] abbreviates: HEK293 cells stably expressing recombinant human Nav1.7, veratridine + scorpion venom depolarization, read-out: FRET-Membrane Potential Nav1.7 IC50.

Like-named read-outs stand apart in the source and are kept apart here. Some results are limits rather than exact numbers.

The source of these data is patent publication US9452986B2, “6-heteroaryloxy- or 6-aryloxy-quinoline-2-carboxamides and method of use” (AbbVie Inc., priority 2014, dated 2016).

Turning to `O=C(N[C@H]1C[C@H](O)C1)c1ccc2cc(Oc3ccc(C(F)(F)F)cn3)ccc2n1` [Example 302, N-(trans-3-hydroxycyclobutyl)-6-{[5-(trifluoromethyl)pyridin-2-yl]oxy}quinoline-2-carboxamide], under “FRET-Membrane Potential Nav1.7 IC50”, the IC50 came to 3490 nM.

Consider `N#Cc1ccc(Oc2ccc3nc(C(=O)NC4(CO)CC4)ccc3c2)cc1` [Example 123, 6-(4-cyanophenoxy)-N-[1-(hydroxymethyl)cyclopropyl]quinoline-2-carboxamide], for which the half-maximal inhibitory concentration (IC50) under setting [1] was 6550 nM.

For `O=C1CN(C(=O)c2ccc3cc(Oc4ccc(C(F)(F)F)cn4)ccc3n2)C1` [Example 370, 1-[(6-{[5-(trifluoromethyl)pyridin-2-yl]oxy}quinolin-2-yl)carbonyl]azetidin-3-one], the 50% inhibitory concentration (IC50) under setting [1] came out at 3390 nM.

Turning to `N#Cc1ccc(Oc2ccc3nc(C(=O)NCc4cccnc4)ccc3c2)cc1` [Example 89, 6-(4-cyanophenoxy)-N-(pyridin-3-ylmethyl)quinoline-2-carboxamide], the IC50 under setting [2] was determined as 1520 nM.

`CS(=O)(=O)c1ccc(Oc2ccc3nc(C(=O)N4CCNCC4)ccc3c2)cc1` [Example 214, {6-[4-(methylsulfonyl)phenoxy]quinolin-2-yl}(piperazin-1-yl)methanone]: the IC50 under setting [2] was greater than 20000 nM.

Regarding `CN(C)CCCNC(=O)c1ccc2cc(Oc3ccc(C#N)cc3)ccc2n1` [Example 85, 6-(4-cyanophenoxy)-N-[3-(dimethylamino)propyl]quinoline-2-carboxamide], under setting [1], the IC50 was found to be 238 nM.

Consider `N[C@@H]1[C@H]2CN(C(=O)c3ccc4cc(Oc5ccc(C(F)(F)F)nc5)ccc4n3)C[C@@H]12` [Example 528, meso-[(1R,5S,6s)-6-amino-3-azabicyclo[3.1.0]hex-3-yl](6-{[6-(trifluoromethyl)pyridin-3-yl]oxy}quinolin-2-yl)methanone], for which the concentration for half-maximal inhibition (IC50) under setting [2] turned out to be 2920 nM.

Regarding “1,4-diazepan-1-yl(6-{[5-(trifluoromethyl)pyridin-2-yl]oxy}quinolin-2-yl)methanone [Example 219]”, under setting [2], the half-inhibitory concentration (IC50) was found to be 2560 nM.

With `COc1cccc(N2CCN(C(=O)c3ccc4cc(Oc5ccc(C(F)(F)F)cn5)ccc4n3)CC2=O)c1` [Example 498, 1-(3-methoxyphenyl)-4-[(6-{[5-(trifluoromethyl)pyridin-2-yl]oxy}quinolin-2-yl)carbonyl]piperazin-2-one], the half-inhibitory concentration (IC50) under setting [2] turned out to be 923 nM.

In the case of `O=C(NCCC1CS(=O)(=O)C1)c1ccc2cc(Oc3ccc(C(F)(F)F)cn3)ccc2n1` [Example 615, N-[2-(1,1-dioxidothietan-3-yl)ethyl]-6-{[5-(trifluoromethyl)pyridin-2-yl]oxy}quinoline-2-carboxamide], the 50% inhibitory concentration (IC50) under setting [2] came to 2320 nM.

With `O=C(c1ccc2cc(Oc3ccc(C(F)(F)F)cn3)ccc2n1)N1C[C@@H](O)C[C@@H]1c1cc(F)ccc1F` [Example 223, [(2R,4S)-2-(2,5-difluorophenyl)-4-hydroxypyrrolidin-1-yl](6-{[5-(trifluoromethyl)pyridin-2-yl]oxy}quinolin-2-yl)methanone], the IC50 under setting [2] amounted to 2790 nM.

As for `O=C(c1ccc2cc(Oc3ccc(C(F)(F)F)cn3)ccc2n1)N1CCCCCC1` [Example 238, azepan-1-yl(6-{[5-(trifluoromethyl)pyridin-2-yl]oxy}quinolin-2-yl)methanone], the IC50 under setting [2] turned out to be 1540 nM.

For `O=C(c1ccc2cc(Oc3ccc(C(F)F)cn3)ccc2n1)N1CCNC2(CC2)C1` [Example 558, 4,7-diazaspiro[2.5]oct-7-yl(6-{[5-(difluoromethyl)pyridin-2-yl]oxy}quinolin-2-yl)methanone], the IC50 under setting [1] was 4490 nM.

In the case of `O=C(NCC(=O)N1C[C@H](O)C[C@H]1CO)c1ccc2cc(Oc3ccc(C(F)(F)F)cn3)ccc2n1` [Example 564, N-{2-[(2S,4R)-4-hydroxy-2-(hydroxymethyl)pyrrolidin-1-yl]-2-oxoethyl}-6-{[5-(trifluoromethyl)pyridin-2-yl]oxy}quinoline-2-carboxamide], under setting [2], the IC50 amounted to 16600 nM.

In the case of `N#Cc1ccc(Oc2ccc3nc(C(=O)NCC(N)=O)ccc3c2)cc1` [Example 146, N-(2-amino-2-oxoethyl)-6-(4-cyanophenoxy)quinoline-2-carboxamide], the concentration for half-maximal inhibition (IC50) under setting [2] worked out at 8030 nM.

`O=C(NC1CS(=O)(=O)CC1O)c1ccc2cc(Oc3ccc(C(F)(F)F)cn3)ccc2n1` (stereo not drawn) [Example 285, N-(4-hydroxy-1,1-dioxidotetrahydrothiophen-3-yl)-6-{[5-(trifluoromethyl)pyridin-2-yl]oxy}quinoline-2-carboxamide]: the IC50 under setting [1] turned out to be 774 nM.

As to `N#Cc1ccc(Oc2ccc3nc(C(=O)NCc4ccccn4)ccc3c2)cc1` [Example 97, 6-(4-cyanophenoxy)-N-(pyridin-2-ylmethyl)quinoline-2-carboxamide], the IC50 under setting [1] worked out at 842 nM.

With `O=C1CC(CNC(=O)c2ccc3cc(Oc4ccc(C(F)(F)F)cn4)ccc3n2)CN1` (stereo not drawn) [Example 609, N-[(5-oxopyrrolidin-3-yl)methyl]-6-{[5-(trifluoromethyl)pyridin-2-yl]oxy}quinoline-2-carboxamide], the IC50 under setting [2] is 4500 nM.

As to `CCN1CC(NC(=O)c2ccc3cc(Oc4ccc(C(F)(F)F)nc4)ccc3n2)CC1=O` (stereo not drawn) [Example 523, N-(1-ethyl-5-oxopyrrolidin-3-yl)-6-{[6-(trifluoromethyl)pyridin-3-yl]oxy}quinoline-2-carboxamide], under setting [2], the half-inhibitory concentration (IC50) turned out to be 356 nM.

Consider `O=C(NC1CCC(F)(F)CC1)c1ccc2cc(Oc3ccc(C(F)(F)F)nc3)ccc2n1` [Example 511, N-(4,4-difluorocyclohexyl)-6-{[6-(trifluoromethyl)pyridin-3-yl]oxy}quinoline-2-carboxamide], for which the concentration for half-maximal inhibition (IC50) under setting [2] came to 1980 nM.

Take `COCC1(F)CCN(C(=O)c2ccc3cc(Oc4ccc(C(F)(F)F)cn4)ccc3n2)CC1` [Example 618, [4-fluoro-4-(methoxymethyl)piperidin-1-yl](6-{[5-(trifluoromethyl)pyridin-2-yl]oxy}quinolin-2-yl)methanone]: the 50% inhibitory concentration (IC50) under setting [1] was found to be 2690 nM.

As to `CN1CCC(NC(=O)c2ccc3cc(Oc4ccc(C#N)cc4)ccc3n2)C1=O` (stereo not drawn) [Example 143, 6-(4-cyanophenoxy)-N-(1-methyl-2-oxopyrrolidin-3-yl)quinoline-2-carboxamide], under setting [2], the IC50 was determined as 1080 nM.

In the case of `O=C(NCC(=O)N1CCCC1)c1ccc2cc(Oc3ccc(C(F)F)cn3)ccc2n1` [Example 456, 6-{[5-(difluoromethyl)pyridin-2-yl]oxy}-N-[2-oxo-2-(pyrrolidin-1-yl)ethyl]quinoline-2-carboxamide], the IC50 under setting [2] worked out at 886 nM.

For the molecule `O=C(NC1CC[S+]([O-])CC1)c1ccc2cc(Oc3ccc(C(F)F)cn3)ccc2n1` (stereo not drawn) [Example 481, 6-{[5-(difluoromethyl)pyridin-2-yl]oxy}-N-(1-oxidotetrahydro-2H-thiopyran-4-yl)quinoline-2-carboxamide], the 50% inhibitory concentration (IC50) under setting [2] was 2630 nM.

Regarding `O=C(c1ccc2cc(Oc3ccc(C(F)(F)F)cn3)ccc2n1)N1CCN(S(=O)(=O)N2CCOCC2)CC1` [Example 185, [4-(morpholin-4-ylsulfonyl)piperazin-1-yl](6-{[5-(trifluoromethyl)pyridin-2-yl]oxy}quinolin-2-yl)methanone], the half-inhibitory concentration (IC50) under setting [2] is greater than 20000 nM.

In the case of `O=C(NC[C@H]1CCCO1)c1ccc2cc(Oc3ccc(C(F)(F)F)cn3)ccc2n1` [Example 409, N-[(2R)-tetrahydrofuran-2-ylmethyl]-6-{[5-(trifluoromethyl)pyridin-2-yl]oxy}quinoline-2-carboxamide], the concentration for half-maximal inhibition (IC50) under setting [2] stood at 403 nM.

For `COC1(CNC(=O)c2ccc3cc(Oc4ccc(C(F)(F)F)cn4)ccc3n2)CCC1` [Example 591, N-[(1-methoxycyclobutyl)methyl]-6-{[5-(trifluoromethyl)pyridin-2-yl]oxy}quinoline-2-carboxamide], the IC50 under setting [2] was found to be 737 nM.

Take `O=C(c1ccc2cc(Oc3ccc(C(F)(F)F)cn3)ccc2n1)N1CCOC(CF)C1` (stereo not drawn) [Example 340, [2-(fluoromethyl)morpholin-4-yl](6-{[5-(trifluoromethyl)pyridin-2-yl]oxy}quinolin-2-yl)methanone]: under setting [2], the IC50 is 2900 nM.

On to `N#Cc1ccc(Oc2ccc3nc(C(=O)NCCCN4CCOCC4)ccc3c2)cc1` [Example 87, 6-(4-cyanophenoxy)-N-[3-(morpholin-4-yl)propyl]quinoline-2-carboxamide], for which the 50% inhibitory concentration (IC50) under setting [2] stood at 1230 nM.

For the molecule `N#Cc1ccc(Oc2ccc3nc(C(=O)N[C@H]4CCC[C@H](O)C4)ccc3c2)cc1` [Example 132, 6-(4-cyanophenoxy)-N-[(1S,3S)-3-hydroxycyclohexyl]quinoline-2-carboxamide], the half-maximal inhibitory concentration (IC50) under setting [2] was determined as 2700 nM.

Take `O=C(NCC(O)C(F)(F)F)c1ccc2cc(Oc3ccc(C(F)(F)F)cn3)ccc2n1` (stereo not drawn) [Example 75, N-(3,3,3-trifluoro-2-hydroxypropyl)-6-{[5-(trifluoromethyl)pyridin-2-yl]oxy}quinoline-2-carboxamide]: the IC50 under setting [2] was 944 nM.

For the molecule `CO[C@@H]1CN(C(=O)c2ccc3cc(Oc4ccc(C(F)(F)F)cn4)ccc3n2)C[C@H]1O` (relative stereo) [Example 305, [trans-3-hydroxy-4-methoxypyrrolidin-1-yl](6-{[5-(trifluoromethyl)pyridin-2-yl]oxy}quinolin-2-yl)methanone], the 50% inhibitory concentration (IC50) under setting [2] amounted to 13600 nM.

On to `O=C(c1ccc2cc(Oc3ccc(C(F)(F)F)cn3)ccc2n1)N1CCCCC1` [Example 297, piperidin-1-yl(6-{[5-(trifluoromethyl)pyridin-2-yl]oxy}quinolin-2-yl)methanone], for which the IC50 under setting [2] amounted to 7990 nM.

As for `N#Cc1ccc(Oc2ccc3nc(C(=O)NC4CCS(=O)(=O)C4)ccc3c2)cc1` (stereo not drawn) [Example 136, 6-(4-cyanophenoxy)-N-(1,1-dioxidotetrahydrothiophen-3-yl)quinoline-2-carboxamide], under setting [1], the half-inhibitory concentration (IC50) worked out at 533 nM.

Take `N#Cc1ccc(Oc2ccc3nc(C(=O)NCc4ccco4)ccc3c2)cc1` [Example 94, 6-(4-cyanophenoxy)-N-(2-furylmethyl)quinoline-2-carboxamide]: under setting [2], the IC50 stood at 5250 nM.

`CN1C(=O)CN(C(=O)c2ccc3cc(Oc4ccc(C(F)(F)F)cn4)ccc3n2)CC12COC2` [Example 188, 5-methyl-8-[(6-{[5-(trifluoromethyl)pyridin-2-yl]oxy}quinolin-2-yl)carbonyl]-2-oxa-5,8-diazaspiro[3.5]nonan-6-one]: the IC50 under setting [2] stood at 9530 nM.
